In one data set the target is T1, hP2X3R (Homo sapiens, UniProt P56373).
T1 construct: expressed in transfected cells
T1 sequence (P56373 1-397): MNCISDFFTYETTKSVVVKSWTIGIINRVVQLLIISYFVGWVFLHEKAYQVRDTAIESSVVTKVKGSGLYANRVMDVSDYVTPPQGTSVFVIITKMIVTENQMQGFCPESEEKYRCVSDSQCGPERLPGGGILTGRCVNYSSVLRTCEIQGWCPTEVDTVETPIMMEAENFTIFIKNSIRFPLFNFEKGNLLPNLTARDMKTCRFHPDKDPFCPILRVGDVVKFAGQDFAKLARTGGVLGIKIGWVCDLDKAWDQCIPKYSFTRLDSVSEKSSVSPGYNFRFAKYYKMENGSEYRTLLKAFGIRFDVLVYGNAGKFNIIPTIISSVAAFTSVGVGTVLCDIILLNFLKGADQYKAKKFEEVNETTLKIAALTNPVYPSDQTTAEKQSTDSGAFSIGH
The data set is described as follows: Calcium influx (Fluo-4) evoked by α,β-meATP in HEK293 cells stably expressing hP2X3R. The following applies: for IC50: antagonistic activity, HEK293 cells expressing hP2X3R, agonist at EC70; for Decrease of P2X3R antagonistic activity compared with KCB-77033: relative to hit compound KCB-77033. It is filed as cell-based. As for the experimental part:
For the evaluation of P2XR activities, a cell-based assay system was employed to measure the level of fluorescence emission, based on Fluo-4 dye, during Ca^2+ influx evoked by αβmeATP in HEK293 cells stably expressing hP2X2/3R and hP2X3R. The library containing 8364 representative compounds for the screening of antagonistic activity was provided by the Korea Chemical Bank. The antagonistic activities were evaluated in the presence of P2X3R agonist of the concentration for EC70 value (200–250 nM for hP2X3R and 1–4 μM for hP2X2/3R highly expressed cell lines), and AF353 was used as the positive control antagonist for comparison. For the first round of screening, a single concentration (25 μM) of each library compound was tested to identify initial hit compounds, which were subsequently validated using both concentrations of 25 and 10 μM. Using a cut-off threshold of higher than 50% antagonistic activity and after confirming dose-dependency, 12 main hit compounds were selected.
3.4. Cell-Based Assay: Measurement of Calcium Influx by Fluorescence-Based Fluo-4 Dye Uptake in HEK293 Cells Expressing hP2X2/3 and hP2X3 Receptors
Human P2X3-expressing HEK293 cells were grown in DMEM supplemented with 10% fetal bovine serum and 1% antibiotic–antimycotic as a monolayer culture at 37 °C in a humidified atmosphere of 5% CO2. The 96-well black plates used in the experiments were prepared by coating them with 1× poly-D-lysine (A3890401, Thermo-Fisher Scientific Korea, Seoul, South Korea). An aliquot of 40 μL 1× poly-D-lysine was used to treat each of the wells in a flat orientation. After leaving the plates for at least 4 h to absorb the poly-D-lysine, the plates were allowed to dry for at least 6 h. The DMEM used in the culture of HEK293 cells was removed from the dish, followed by application of 3 mL 1× PBS for washing. Removal of 1× PBS was followed by application of 1 mL trypsin/EDTA, and the cells were collected by centrifugation at 1200 rpm for 2 min. The supernatant was removed, and 1 mL fresh DMEM added. The cells were resuspended in media and plates prepared with 4.8 × 10^4 cells/well in 56 μL/well. After 18 h of cell culture in the 96-well black plate, 56 μL of Fluo-4 dye (Fluo-4 Direct^TM Calcium Assay Kit, F10471, Invitrogen, Thermo-Fisher Scientific Korea, Seoul, South Korea) was added to each well, prepared according to the manufacturer’s protocol, and incubated for 50 min~1 h under culturing conditions. Then, 12.4 μL of the appropriate compound solution was added to each well, and the positive control was AF353 (A1612, Sigma Aldrich Korea, Seoul, South Korea) and the negative control was 5% DMSO. Plates were incubated at room temperature and sealed to avoid interference from light for 50 min~1 h. Flexstation 3 and its software provided by Molecular Devices was used for the measurement of fluorescence in real time of treatments using prepared α,β-meATP (M6517, Sigma Aldrich) solution to evoke calcium influx and increased cell membrane potential.
For the analysis of antagonistic activities, all data were calculated by Origin Pro 9.1 software provided by Originlab and the fitting of graphs was proceeded by the growth/sigmoidal and hill1 process within no weights for data selections. For the analysis of the behavioral assessments of pain models, all data are expressed as mean ± SEM. The dose–response data are presented as percentages of the maximum possible effect. Statistical significance was analyzed by independent t-test. The criterion for statistical significance was p < 0.05. The statistical analysis was performed using SPSS 25.0 software (IBM Corp., Armonk, NY, USA).

Data set [1] can be described thus: Metabolic stability in microsomal fraction, mouse. It is filed as in vitro ADME. The following applies: mouse; Table 1.
A short description of data set [2]: Metabolic stability in microsomal fraction, rat. The following applies: Table 1. The format is in vitro ADME.
Data set [3] is described as follows: Metabolic stability in microsomal fraction, human. The following applies: Table 1. It is filed as in vitro ADME.

The IC50 is the concentration needed to halve the response being measured.

Each structure is given as a SMILES string.

In the case of `Cc1nc2c([nH]1)C(=O)C(Cl)=C(Nc1ccc(F)cc1)C2=O` [10a, 6-Chloro-5-((4-fluorophenyl)amino)-2-methyl-1H-benzo[d]imidazole-4,7-dione], on hP2X3R, the IC50 was determined as 4910 ± 821 nM and the “Decrease of P2X3R antagonistic activity compared with KCB-77033” value is reported as 4–5 fold. In addition, in data set [1], the “Metabolic Stability Mouse (%)” value is on record as 18.4 ± 2.7%. Moreover, the “Metabolic Stability Rat (%)” value in data set [2] is recorded as 26.2 ± 3.4%. In addition, the “Metabolic Stability Human (%)” value in data set [3] came to 43.1 ± 4.7%. On to `Cc1nc2c([nH]1)C(=O)C(Cl)=C(Nc1ccc(Cl)cc1)C2=O` [10b, 6-Chloro-5-((4-chlorophenyl)amino)-2-methyl-1H-benzo[d]imidazole-4,7-dione], for which, on hP2X3R, the IC50 came to 3720 ± 731 nM and the “Decrease of P2X3R antagonistic activity compared with KCB-77033” value was 4–5 fold. Consider `O=C1C(Cl)=C(Nc2ccc(F)cc2)C(=O)c2[nH]c(C(F)(F)F)nc21` [11a, 6-Chloro-5-((4-fluorophenyl)amino)-2-(trifluoromethyl)-1H-benzo[d]imidazole-4,7-dione], for which the IC50 on hP2X3R came to 1020 ± 111 nM. In addition, the “Metabolic Stability Mouse (%)” value in data set [1] was 95.7 ± 17.2%. In addition, the “Metabolic Stability Rat (%)” value in data set [2] was above 99%. For the same molecule, the “Metabolic Stability Human (%)” value in data set [3] worked out at 81.4 ± 1.9%.

`O=C1C(Cl)=C(Nc2ccc(Cl)cc2)C(=O)c2[nH]c(C(F)(F)F)nc21` [11b, 6-Chloro-5-((4-chlorophenyl)amino)-2-(trifluoromethyl)-1H-benzo[d]imidazole-4,7-dione]: at hP2X3R, the IC50 was 825 ± 70 nM. Consider `O=C1C(Nc2ccc(F)c(F)c2)=C(Cl)C(=O)c2[nH]c(C(F)(F)F)nc21` [11c, 6-Chloro-5-((3,4-difluorophenyl)amino)-2-(trifluoromethyl)-1H-benzo[d]imidazole-4,7-dione], for which the IC50 at hP2X3R worked out at 834 ± 117 nM. For `O=C1C(Nc2ccc(Cl)c(Cl)c2)=C(Cl)C(=O)c2[nH]c(C(F)(F)F)nc21` [11d, 6-Chloro-5-((3,4-dichlorophenyl)amino)-2-(trifluoromethyl)-1H-benzo[d]imidazole-4,7-dione], the IC50 at hP2X3R was 808 ± 75 nM.

Regarding `O=C1C(Nc2ccc(F)cc2Cl)=C(Cl)C(=O)c2[nH]c(C(F)(F)F)nc21` [11e, 6-Chloro-5-((2-chloro-4-fluorophenyl)amino)-2-(trifluoromethyl)-1H-benzo[d]imidazole-4,7-dione], the IC50 at hP2X3R is 660 ± 113 nM.

Consider `O=C1C(Nc2ccc(F)c(Cl)c2)=C(Cl)C(=O)c2[nH]c(C(F)(F)F)nc21` [11f, 6-Chloro-5-((3-chloro-4-fluorophenyl)amino)-2-(trifluoromethyl)-1H-benzo[d]imidazole-4,7-dione], for which the IC50 on hP2X3R was found to be 703 ± 96 nM. `O=C1C(Nc2ccc(Cl)cc2F)=C(Cl)C(=O)c2[nH]c(C(F)(F)F)nc21` [11g, 6-Chloro-5-((4-chloro-2-fluorophenyl)amino)-2-(trifluoromethyl)-1H-benzo[d]imidazole-4,7-dione]: the IC50 on hP2X3R came out at 526 ± 141 nM. As to `O=C1C(Nc2ccc(Cl)c(F)c2)=C(Cl)C(=O)c2[nH]c(C(F)(F)F)nc21` [11h, 6-Chloro-5-((4-chloro-3-fluorophenyl)amino)-2-(trifluoromethyl)-1H-benzo[d]imidazole-4,7-dione], the IC50 at hP2X3R came to 541 ± 103 nM. `O=C1C(Nc2ccc(F)c(Br)c2)=C(Cl)C(=O)c2[nH]c(C(F)(F)F)nc21` [11i, 5-((3-Bromo-4-fluorophenyl)amino)-6-chloro-2-(trifluoromethyl)-1H-benzo[d]imidazole-4,7-dione]: on hP2X3R, the 50% inhibitory concentration (IC50) turned out to be 1040 ± 221 nM. The same measure, in the same setting: the result for `O=C1C(Nc2ccc(Br)c(F)c2)=C(Cl)C(=O)c2[nH]c(C(F)(F)F)nc21` [11j, 5-((4-Bromo-3-fluorophenyl)amino)-6-chloro-2-(trifluoromethyl)-1H-benzo[d]imidazole-4,7-dione] reads 782 ± 139 nM; that for `O=C1C(Nc2ccc(Cl)cc2I)=C(Cl)C(=O)c2[nH]c(C(F)(F)F)nc21` [11k, 6-Chloro-5-((4-chloro-2-iodophenyl)amino)-2-(trifluoromethyl)-1H-benzo[d]imidazole-4,7-dione], 774 ± 166 nM; that for `COC(=O)N1CCC(NC2=C(Cl)C(=O)c3[nH]c(C(F)(F)F)nc3C2=O)CC1` [14a, Methyl-4-((6-chloro-4,7-dioxo-2-(trifluoromethyl)-4,7-dihydro-1H-benzo[d]imidazol-5-yl)amino)piperidine-1-carboxylate], 979 ± 104 nM. On the same count and under the same terms, the result for `CCC(=O)N1CCC(NC2=C(Cl)C(=O)c3[nH]c(C(F)(F)F)nc3C2=O)CC1` [14b, 6-Chloro-5-((1-propionylpiperidin-4-yl)amino)-2-(trifluoromethyl)-1H-benzo[d]imidazole-4,7-dione] reads 921 ± 117 nM. On the same count and under the same terms, the result for `O=C1C(NC2CCN(C(=O)c3ccccc3)CC2)=C(Cl)C(=O)c2[nH]c(C(F)(F)F)nc21` [14c, 5-((1-Benzoylpiperidin-4-yl)amino)-6-chloro-2-(trifluoromethyl)-1H-benzo[d]imidazole-4,7-dione] reads 864 ± 112 nM; that for `O=C1C(NC2CCN(C(=O)c3ccc(F)cc3)CC2)=C(Cl)C(=O)c2[nH]c(C(F)(F)F)nc21` [14d, 6-Chloro-5-((1-(4-fluorobenzoyl)piperidin-4-yl)amino)-2-(trifluoromethyl)-1H-benzo[d]imidazole-4,7-dione], 450 ± 59 nM.

Turning to `O=C1C(NC2CCN(C(=O)c3ccc(Cl)cc3)CC2)=C(Cl)C(=O)c2[nH]c(C(F)(F)F)nc21` [14e, 6-Chloro-5-((1-(4-chlorobenzoyl)piperidin-4-yl)amino)-2-(trifluoromethyl)-1H-benzo[d]imidazole-4,7-dione], on hP2X3R, the IC50 stood at 481 ± 20 nM.

Take `O=C1C(NC2CCN(C(=O)c3ccc(Br)cc3)CC2)=C(Cl)C(=O)c2[nH]c(C(F)(F)F)nc21` [14f, 5-((1-(4-Bromobenzoyl)piperidin-4-yl)amino)-6-chloro-2-(trifluoromethyl)-1H-benzo[d]imidazole-4,7-dione]: the IC50 at hP2X3R came to 804 ± 91 nM. The same measure, in the same setting: in the case of `O=C1C(NC2CCN(C(=O)c3ccc(Cl)c(Cl)c3)CC2)=C(Cl)C(=O)c2[nH]c(C(F)(F)F)nc21` [14g, 6-Chloro-5-((1-(3,4-dichlorobenzoyl)piperidin-4-yl)amino)-2-(trifluoromethyl)-1H-benzo[d]imidazole-4,7-dione] it was 577 ± 66 nM; in that of `O=C1C(NC2CCN(C(=O)c3ccc(F)c(Cl)c3)CC2)=C(Cl)C(=O)c2[nH]c(C(F)(F)F)nc21` [14i, 6-Chloro-5-((1-(3-chloro-4-fluorobenzoyl)piperidin-4-yl)amino)-2-(trifluoromethyl)-1H-benzo[d]imidazole-4,7-dione], 505 ± 51 nM; in that of `N#Cc1ccc(C(=O)N2CCC(NC3=C(Cl)C(=O)c4[nH]c(C(F)(F)F)nc4C3=O)CC2)cc1` [14j, 4-(4-((6-Chloro-4,7-dioxo-2-(trifluoromethyl)-4,7-dihydro-1H-benzo[d]imidazol-5-yl)amino)piperidine-1-carbonyl)benzonitrile], 4440 ± 480 nM. Still for that read-out and setting: the result for `O=C1C(NC2CCN(C(=O)c3ccc(C(F)(F)F)cc3)CC2)=C(Cl)C(=O)c2[nH]c(C(F)(F)F)nc21` [14k, 6-Chloro-2-(trifluoromethyl)-5-((1-(4-(trifluoromethyl)benzoyl)piperidin-4-yl)amino)-1H-benzo[d]imidazole-4,7-dione] reads above 10000 nM.

(Values after PMC8877008, “Synthesis and Structure–Activity Relationship Studies of Benzimidazole-4,7-dione-Based P2X3 Receptor Antagonists as Novel Anti-Nociceptive Agents” (Molecules, 2022).)
